Residue numbers refer to the chain shown, from its start. Values joined by “and” are separate entries in the source; they are usually repeats but may differ in a detail not shown here. Identical values can stand only once.
Columns and labels:
mutant α-GAL [1] = target: T1, mutant α-GAL (Homo sapiens, UniProt P06280, C94S); assay: T cell-based α-GAL enhancement assay, T cells from Fabry patients cultured with DGJ; set-up: key to Enhancement Group / Enhancement ratio: E: enhanceable;; I: enhanceable (intermediate);; NE: not enhanceable;; conditions: Fabry patient T cells, mutation C94S
T1 construct: endogenous in cells; host or cells: T cell cultures established from blood of Fabry patients
T1 sequence (P06280 32-429 C94S): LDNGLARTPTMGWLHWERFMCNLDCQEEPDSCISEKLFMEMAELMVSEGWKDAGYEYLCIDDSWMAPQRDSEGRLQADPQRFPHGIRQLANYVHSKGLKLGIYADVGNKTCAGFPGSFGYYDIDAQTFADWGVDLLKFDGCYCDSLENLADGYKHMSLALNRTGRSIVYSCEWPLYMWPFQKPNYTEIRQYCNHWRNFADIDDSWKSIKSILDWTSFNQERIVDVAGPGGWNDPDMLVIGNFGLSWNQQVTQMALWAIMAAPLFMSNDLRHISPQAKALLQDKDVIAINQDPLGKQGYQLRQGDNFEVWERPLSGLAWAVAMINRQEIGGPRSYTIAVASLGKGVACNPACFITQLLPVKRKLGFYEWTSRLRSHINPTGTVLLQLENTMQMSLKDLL
Outline: (§1)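 T cells expanded from patient or normal blood white cells in RPMI 1640 with serum, about 25 ng/ml IL-2 and PHA at 37° C, 5% CO2. Cultures held between 5×10^5 and 1.5×10^6 cells/ml.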

mutant α-GAL [2] = target: T2, mutant α-GAL (Homo sapiens, UniProt P06280, T41I); assay: as above; set-up: key to Enhancement Group / Enhancement ratio: E: enhanceable;; I: enhanceable (intermediate);; NE: not enhanceable;; conditions: Fabry patient T cells, mutation T41I
T2 construct: endogenous in cells; host or cells: T cell cultures established from blood of Fabry patients
T2 sequence (P06280 32-429 T41I): T1 sequence (P06280 32-429 C94S) with T10I, S63C
Outline: as §1

Enhancement Group (mutant α-GAL [1]): NE
Activity (% Normal) (+DGJ) (mutant α-GAL [1]; 20 μM DGJ): 2 % Normal
Enhancement ratio (mutant α-GAL [1]; +DGJ vs −DGJ): NE
Enhancement Group (mutant α-GAL [2]): E
Activity (% Normal) (+DGJ) (mutant α-GAL [2]; 20 μM DGJ): 147 % Normal and 175 % Normal
Enhancement ratio (mutant α-GAL [2]; +DGJ vs −DGJ): 3.0 and 2.9
Compound: OC[C@H]1NC[C@H](O)[C@@H](O)[C@H]1O [DGJ, 1-deoxygalactonojirimycin]
